Test results as given in patent publication US11510928B2, “Use of mirtazapine in the treatment of inflammatory disorders, autoimmune disease and PBC” (UTI Limited Partnership, priority 2017, dated 2022).

Test system: Con A-induced hepatitis
Test: Concanavalin A (Con A) hepatitis model of immune-mediated liver injury
Format: in vivo, mouse
Conditions: for Con A-induced liver damage (plasma ALT levels): 1, 10, 20 mg/kg ip 1 hour before Con A
Protocol: To determine whether mirtazapine treatment alters subsequent immune-mediated liver injury, we used the mouse model of concanavalin (Con A) hepatitis. The Con A model is a widely used and well characterized model of immune-mediated T cell-driven liver injury^16, 17. Mice were treated with mirtazapine 20 mg/kg ip and 1 hour later Con A (Sigma, St. Louis, Mo.) or PBS vehicle was injected intravenously at a dose of 13.5 mg/kg^17. Mice were sacrificed 16 hours following Con A administration and hepatitis determined biochemically (ALT) and histologically (H & E staining)^17, 18. In addition, to further characterize the effects of mirtazapine in the Con A model, we performed a mirtazapine dose response study with mirtazapine doses of 1, 10, and 20 mg/kg ip given 1 hour prior to Con A treatment.
To assess liver injury, plasma alanine aminotransferase (ALT) activity was measured (Roche-Hitachi Modular-P800 apparatus; Roche, Mannheim, Germany). Additionally, formalin-fixed liver tissue slices were stained with Hematoxylin and Eosin (H&E) for microscopic examination. Extent of liver parenchymal necrosis was quantitated as previously described, using an Olympus XC10 camera (acquired using the Olympus VS-ASW software package; original magnification ×400). Images were later processed and selected images obtained at 25 or 50% magnification (corresponding to magnifications of 100x and 200X, respectively).
Hepatic CXCL10/IP-10, CXCL9/MIG, ICAM-1 and VCAM-1 expression were determined using immunohistochemistry, as previously described. Briefly, following initial deparaffinization and rehydration of tissue sections, antigen retrieval was performed in lx Citrate buffer, PH 6.0 (Abcam) for IP-10/CXCL9 and MIG/CXCL9, or in 1X EDTA buffer pH 8.0 for ICAM1 and VCAM-1. In all cases slides were incubated in antigen retrieval buffer at 95-100° C. for 20 minutes. Endogenous peroxidase and endogenous biotin were blocked using 3% H2O2 and an avidin/biotin blocking kit (Vector Laboratories, Burlingame, Calif.) respectively, and then incubated with primary antibodies (Rabbit IgG polyclonal against MIG at 1:200; polyclonal goat IgG against IP-10/CXCL10 at 1:40; rat monoclonal against ICAM-1 clone YN1/1.7.4 at 1:200; and rabbit monoclonal against VCAM1 clone EPR5047 at 1:1000) overnight at 4° C. This was followed by incubation with biotinylated rabbit anti-goat, goat-anti rat or goat anti-rabbit secondary antibodies (at 1:150) for 1 hour at room temperature (Vector Labs). Negative staining controls were performed by omission of primary antibody, or by omission of both primary and secondary antibodies. […] This was followed by incubation with Vectastain Elite ABC kit (Vector Laboratories) for 30 min at room temperature. Color was developed with Nova Red Chromogen (ImmPACT NovaRED Peroxidase Substrate, Vector Lab, Burlingame, Calif.), after which sections were counterstained with hematoxylin (EMD Millipore). Mounted slides were converted to virtual slides with a BX61 VS virtual microscopy system equipped with an XC10 camera and VS ASW software (Olympus) (original magnification ×400). For ICAM-1, VCAM1, CXCL9/Mig, and CXCL10/IP10 expression, all scanned virtual slides of the sections were examined in a blinded fashion, and expression patterns evaluated and described.
To delineate the effect of mirtazapine treatment on hepatic cytokine/chemokine expression a Luminex® assay was used using methods as previously described. Livers were collected 5 hours after mirtazapine or vehicle treatment. A panel of mouse cytokines/chemokines were simultaneously measured in liver homogenate samples using a mouse MILLIPLEX kit (Millipore, USA) according to the manufacturer's protocol. The multiplexing analysis was performed using the Luminex 100 system (Luminex®, USA; Eve Technologies Corporation, Calgary, Canada). Total protein concentrations in liver homogenates were quantified using a BCA Protein Assay kit (Pierce, USA) according to manufacturers instructions. […]

What does the source list for CN1CCN2c3ncccc3Cc3ccccc3C2C1 (stereo not shown) [Mirtazapine]?
Histological liver damage (liver cell necrosis, H&E) (20 mg/kg, 16 hrs post-Con A): only a minimal hepatocyte damage; Con A-induced liver damage (plasma ALT levels) (16 hrs post-Con A): markedly attenuated; Con A-induced liver damage (plasma ALT levels) (16 hrs post-Con A, listed as mirtazapine): striking reduction in liver damage; Hepatic CXCL10 levels (Con A treated mice, 20 mg/kg): significantly augmented; Hepatic IL-10 levels (Con A treated mice, 20 mg/kg): significantly higher; Hepatic TNFα and IFNγ levels (Con A treated mice, 20 mg/kg): significantly reduced; Hepatic levels of IL-6, IL-9 and LIF (Con A treated mice, 20 mg/kg): significantly reduced; Hepatic levels of the chemokines CXCL9, CXCL2, CXCL1, CCL11 and CCL2 (Con A treated mice, 20 mg/kg): reduced; Con A-induced increases in ICAM-1 expression in hepatic central veins and sinusoidal endothelium (IHC, 20 mg/kg): almost completely prevented; Con A-induced increases in hepatic VCAM-1 expression (IHC, 20 mg/kg): minimal effect
